These results are taken from patent publication US20120021434A1, “METHOD FOR TREATING B CELL REGULATED AUTOIMMUNE DISORDERS” (Synta Pharmaceuticals Corp., priority 2005, published 2012).

The target in one experiment is T1, c-Rel (Homo sapiens, UniProt Q04864).
T1 construct: a western blot assay of THP1 nuclear c-Rel, p50 and p65 proteins was carried out; endogenous in cells; host or cells: THP-1; Jurkat
T1 sequence (Q04864 1-619): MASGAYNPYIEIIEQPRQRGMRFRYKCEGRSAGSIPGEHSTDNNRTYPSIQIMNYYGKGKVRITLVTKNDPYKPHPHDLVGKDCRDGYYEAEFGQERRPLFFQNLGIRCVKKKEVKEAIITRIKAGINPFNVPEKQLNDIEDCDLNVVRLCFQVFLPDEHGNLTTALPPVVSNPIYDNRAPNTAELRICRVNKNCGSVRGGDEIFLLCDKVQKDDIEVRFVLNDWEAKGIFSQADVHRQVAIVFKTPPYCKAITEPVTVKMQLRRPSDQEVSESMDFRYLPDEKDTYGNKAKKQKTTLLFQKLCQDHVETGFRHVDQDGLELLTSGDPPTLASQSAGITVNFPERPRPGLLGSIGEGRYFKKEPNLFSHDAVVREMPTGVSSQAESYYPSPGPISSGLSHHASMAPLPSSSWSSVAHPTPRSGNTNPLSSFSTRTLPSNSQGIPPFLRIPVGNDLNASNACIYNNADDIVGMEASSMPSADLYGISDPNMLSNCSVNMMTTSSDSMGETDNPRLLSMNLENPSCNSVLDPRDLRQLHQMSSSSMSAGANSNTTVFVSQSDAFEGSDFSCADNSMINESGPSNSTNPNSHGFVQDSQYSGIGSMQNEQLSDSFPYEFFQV
As to the kind of experiment: Western blot of THP-1 nuclear extracts: c-Rel. It counts as cell-based. As to conditions: of the transcription factors analyzed. The method, then:
The THP-1 cell, Jurkat cell and RAW264.7 cell line were obtained from American Type Culture Collection (Manassas, Va.). The THP-1 Jurkat cells were cultured in RPMI 1640 (ATCC, Manassas, Va.), supplemented with 10% FCS (ATCC, Manassas, Va.), and 1% penicillin/Streptomycin (Gibco-BRL, New York, N.Y.). The RAW264.7 cells were cultured in DMEM (ATCC, Manassas, Va.) supplemented with 10% FCS (ATCC, Manassas, Va.), and 1% penicillin/Streptomycin (Gibco-BRL, New York, N.Y.). The cells were stimulated with human or murine recombinant IFNγ (100 ng/ml) for 10 h followed by LPS (1 μg/ml) or SAC (0.025%) CpG ([…]) in the presence or absence of Compound 50 at different concentrations for an additional incubation.
THP-1 cells were suspended in 20 volumes of buffer A containing 10 mM KCl, 10 mM HEPES (pH 7.9), 1 mM MgCl2, 1 mM dithiothreitol (DTT), 0.1% Nonidet p40 (NP-40), and 0.5 mM phenylmethylsulfonyl fluoride (PMSF) and homogenized and centrifuged at 10,000 rpm at 4C afor 5 min. Nuclear pellets were then suspended in buffer C containing 400 mM NaCl, 20 mM HEPES 9, pH 7.9), 15 mM MgCl2, 0.2 mM EDTA, 1 mM DTT, 25% glycerol, 1 mM PMSF, and 10 ug of leupeptin, 20 ug of pepstatin, and 10 ug/ml antipain, incubated for 30 min at 4C, and centrifuged at 14,000 rpm for 20 min. The supernatants were dialyzed against buffer D containing 100 mM NaCl, 20 mM HEPES (pH 7.9), 20% glycerol, 1 mM PMSF, and 1 mM DTT.
The 10% SDS Polyacrylamide gels (Inveitrogen) were transferred to Pure Nitrocellulose membrane (BioRed, Hercules, Calif.). The membranes were blocked with 5% milk in TBST buffer and incubated with anti-c-Rel, anti-p65, anti-p50, anti-ICSBP or anti-PU-1 antibody (all the antibodies were purchased from Santa Cruz) at a dilution of 1:500 for 1 h at room temperature or overnight at 4C. […]
Of the transcription factors that have been analyzed, two factors, ICSBP and c-Rel, seem to be affected by Compound 4/Compound 50 treatment. […]
In general terms: In western blotting, separated proteins are transferred to a membrane and probed.

The next experiment has as its system ICSBP. As to the kind of experiment: ICSBP expression (Western blot). It counts as cell-based. Particulars: of the transcription factors analyzed. Here is the method:
The 10% SDS Polyacrylamide gels (Inveitrogen) were transferred to Pure Nitrocellulose membrane (BioRed, Hercules, Calif.). The membranes were blocked with 5% milk in TBST buffer and incubated with anti-c-Rel, anti-p65, anti-p50, anti-ICSBP or anti-PU-1 antibody (all the antibodies were purchased from Santa Cruz) at a dilution of 1:500 for 1 h at room temperature or overnight at 4C. The membranes were washed and incubated with Horseradish Peroxidase-conjugated anti-rabbit IgG or anti-mouse IgG (Amersham, England) at a dilution of 1:2000 at room temperature for 1 h.
Of the transcription factors that have been analyzed, two factors, ICSBP and c-Rel, seem to be affected by Compound 4/Compound 50 treatment. ICSBP binds indirectly to the Ets-2 site. The primary NF-κB trans-activator for IL-12 is the c-Rel/p50 heterodimer. Other dimers (p65/p50 and p50/p50) either lack activity or have inhibitory functions. Thus, c-Rel plays a role in IL-12 transcription as a result of both activation through NF-κB and its interaction with ICSBP. […] The membranes were blocked with 5% milk in TBST buffer and then incubated with anti-c-Rel, anti-p65, anti-p50, anti-ICSBP or anti-PU-1 antibody (all the antibodies were purchased from Santa Cruz) at a dilution of 1:500 for 1 h at room temperature or overnight at 4° C. The membranes were washed and incubated with Horseradish Peroxidase-conjugated anti-rabbit IgG or anti-mouse IgG (Amersham, England) at a dilution of 1:2000 at room temperature for 1 h.
ICSBP, whose expression was reduced by Compound 50, was over-expressed using co-transfection with the IL-12 promoter-Luc report system. The over-expression construct of ICSBP was generated by PCR from cDNA of human PBMC using primers as follow: ICSBP-exp-F: 5′-[…]-3′ (SEQ ID NO:1) and ICSBP-exp-R: 5′-[…]-3′ (SEQ ID NO:2), the resulting PCR products was ligated to pCI vector (Promega).

With `C(=N\Nc1nc(OCCc2ccccn2)nc(N2CCOCC2)n1)/c1c[nH]c2ccccc12` [Compound 4], the “transcription factor c-Rel affected by treatment” value on c-Rel is listed as “affected”. In the experiment on ICSBP, the “transcription factor ICSBP affected by treatment” value is on record as “affected”.
